Assay results: PubChem BioAssay (NCI)
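1) Cells in 96-well plates. 2) Compound, 48 h, 5 concentrations. 3) Linear interpolation between surrounding doses. 4) Unreached endpoint = highest concentration. GI50 marks 50% less growth. TGI is the concentration that stops growth completely.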

Legend:
Experiment in all cases: inhibition of tumour cell growth, NCI panel, 48 h
OVCAR-4 ovarian = test system: OVCAR-4 ovarian
HCT-15 colon = test system: HCT-15 colon
OVCAR-5 ovarian = test system: OVCAR-5 ovarian
786-0 renal = test system: 786-0 renal
HCT-116 colon = test system: HCT-116 colon
SK-MEL-5 melanoma = test system: SK-MEL-5 melanoma
NCI-H226 lung = test system: NCI-H226 lung
MCF7 breast = test system: MCF7 breast
SF-295 CNS = test system: SF-295 CNS
OVCAR-8 ovarian = test system: OVCAR-8 ovarian

Row | Compound | GI50 (OVCAR-4 ovarian) [µM] | TGI (OVCAR-4 ovarian) [µM] | GI50 (HCT-15 colon) [µM] | TGI (HCT-15 colon) [µM] | GI50 (OVCAR-5 ovarian) [µM] | TGI (OVCAR-5 ovarian) [µM] | GI50 (786-0 renal) [µM] | TGI (786-0 renal) [µM] | GI50 (HCT-116 colon) [µM] | TGI (HCT-116 colon) [µM] | GI50 (SK-MEL-5 melanoma) [µM] | TGI (SK-MEL-5 melanoma) [µM] | GI50 (NCI-H226 lung) [µM] | TGI (NCI-H226 lung) [µM] | GI50 (MCF7 breast) [µM] | GI50 (SF-295 CNS) [µM] | TGI (SF-295 CNS) [µM] | TGI (OVCAR-8 ovarian) [µM] | GI50 (OVCAR-8 ovarian) [µM] | TGI (MCF7 breast) [µM]
1 | COc1cc(C(=O)O[C@H](C(=O)NCCCCCNC(=O)[C@@H](OC(=O)c2cc(OC)cc3c(C)cccc23)[C@]2(C)CO2)[C@]2(C)CO2)c2cccc(C)c2c1 | 0.877 | > 100 | 0.174 | 2.13 | 1.52 | 5.61 | < 0.01 | 0.0115 | 0.884 | 3.68 | 0.166 | 0.501 | 0.93 | 4.09 | < 0.0123 | 2.5 | 6.75 | – | – | –
2 | CCOc1ccc2c(c1)[n+]([O-])c(-c1ccc(Cl)cc1)c(N)[n+]2[O-] | – | > 100 | – | > 100 | – | > 100 | – | > 100 | – | > 100 | – | > 100 | – | > 100 | – | – | > 100 | > 100 | – | –
3 | COc1cc([N+](=O)[O-])c(OC)cc1-c1nc2sc(Cl)cn2c1/C(N)=N/C(=N)N | 5.67 | 33.8 | 65 | > 100 | 19.7 | 45.4 | 2.33 | 5.64 | 2.41 | 6.41 | 4.52 | 29.5 | 20.9 | 53.9 | – | 9.94 | 36.7 | – | – | –
4 | CN1C(=Nc2ccccc2)SC1=Nc1ccccc1 | – | > 100 | – | > 100 | – | > 100 | – | > 100 | – | > 100 | – | > 100 | – | > 100 | – | – | > 100 | > 100 | – | –
5 | CCOc1ccccc1N1C(=O)C(=O)C(c2nc3ccccc3o2)C(=O)C1=O | – | 45.7 | – | > 100 | – | > 100 | – | 65 | – | > 100 | – | > 100 | – | > 100 | – | – | > 100 | > 100 | – | –
6 | COc1ccc2n[se]nc2c1 | – | > 100 | – | > 100 | – | > 100 | – | > 100 | – | – | – | > 100 | – | – | – | – | > 100 | > 100 | – | –
7 | CN(C)CC/C(=N\Nc1ccc([N+](=O)[O-])cc1)c1ccccc1 | – | 37.2 | – | 27.2 | – | 28.2 | – | 27.1 | – | 24 | – | 28.5 | – | – | – | – | 23.6 | 27.1 | – | –
8 | Cc1ccc2nc(NC(=O)C(=O)C(C#N)c3nc4ccccc4s3)sc2c1 (stereo not drawn) | – | > 100 | – | > 100 | – | > 100 | – | > 100 | – | > 100 | – | 45.7 | – | 89.3 | – | – | > 100 | > 100 | – | –
9 | CCC[CH2][Sn]1([CH2]CCC)[O]C(=O)c2cccnc2[O]1 | 1.65 | 8.57 | 1.9 | 3.66 | 11.9 | 24.2 | 2.62 | 8.01 | 3.61 | 11.4 | 4.57 | 16.8 | 10.5 | 23 | – | 3.12 | 10.4 | 7.64 | 2.25 | –
10 | CN(CCCn1c2c(c3ccccc3c1=O)C(=O)c1ccccc1-2)CCCn1c2c(c3ccccc3c1=O)C(=O)c1ccccc1-2 | 2.26 | > 100 | 0.229 | 2.62 | 1.66 | 3.59 | 0.0214 | 1.39 | 0.0133 | 0.37 | 6.57 | > 100 | 0.99 | > 36.9 | – | 0.122 | 9.5 | – | – | –
11 | COc1cc(/C=C2/C(=O)N(C(=O)OCC(C)C)C(Cc3cc(OC)c(OC)c(C)c3OC)C(=O)N2Cc2ccccc2)c(OC)c(C)c1OC (stereo not drawn) | – | > 100 | – | – | – | > 100 | – | > 100 | – | > 100 | – | > 100 | – | 9.7 | – | – | > 100 | > 100 | – | –
12 | CC(C)(C)c1ccc(Oc2nccc(-c3c(-c4ccc(F)cc4)ncn3C3CCNCC3)n2)cc1 | 3.61 | 7.32 | 3.23 | 6.68 | 4.26 | 7.76 | 4.22 | 8.12 | 3.58 | 7.07 | 3.68 | 7.03 | – | – | 3.86 | 4.65 | 8.68 | 7.36 | 3.72 | 7.77
13 | COc1ccc(C(=O)OC2C(OC3C(O)COC(O[C@H]4C[C@H]5[C@@H]6CC=C7C[C@@H](O)CC[C@]7(C)[C@H]6CC[C@]5(C)[C@H]4[C@H](C)C(=O)CCC(C)C)C3OC(N)=O)OCC(O)C2O)cc1 (stereo partly drawn) | 0.475 | 5.26 | 1.04 | 5.44 | 0.555 | 6.48 | 0.00486 | 3.13 | 0.0198 | 3.56 | 0.114 | 0.615 | – | – | 0.00855 | < 0.003 | 0.00922 | 9.27 | 3.14 | 0.635
14 | O=C(O)C(/C=C/c1ccccc1)c1ccccc1 (stereo not drawn) | – | – | – | > 100 | – | > 100 | – | > 100 | – | > 100 | – | > 100 | – | > 100 | – | – | > 100 | > 100 | – | > 100
15 | O=C(O)CNC(=O)c1ccc(-c2ccccc2)cc1 | – | – | – | > 100 | – | > 100 | – | > 100 | – | > 100 | – | > 100 | – | > 100 | – | – | > 100 | > 100 | – | > 100
16 | O=C([CH-]C(=O)c1ccccc1)c1ccccc1.O=C([CH-]C(=O)c1ccccc1)c1ccccc1.[La+3].[OH-].[OH3+] | 26.1 | > 100 | 13 | 48.1 | 65.8 | > 100 | 16 | 65.1 | 7.89 | 29.6 | 10.3 | 23.9 | 1.67 | 17.7 | – | – | – | 65.4 | 6.67 | –
17 | COC(=O)/C(C)=C(/CCC1(C)OCCO1)O[Si](C)(C)C | – | > 100 | – | > 100 | – | > 100 | – | > 100 | – | > 100 | – | > 100 | – | – | – | – | > 100 | > 100 | – | –
18 | COc1ccc(Br)c(N/N=C2\CCCNC2=O)c1 | – | > 100 | – | > 100 | – | > 100 | – | > 100 | – | > 100 | – | > 100 | – | > 100 | – | – | > 100 | > 100 | – | –
